Assay results published in ChEMBL document CHEMBL2169851, “Imidazopyridazinones as novel PDE7 inhibitors: SAR and in vivo studies in Parkinson's disease model” (Bioorg Med Chem Lett, 2012).
Each block holds one compound with its values, some of them ahead of it. Activity calls are given as the source filed them. No cut-off for these calls is given here.

What was measured:
[1] = target: T1, High affinity 3',5'-cyclic-AMP phosphodiesterase 7A (Homo sapiens, UniProt Q13946); experiment: Inhibition of cloned human recombinant PDE7A assessed as [3H]cAMP hydrolysis by radiometric assay
[2] = target: T1, High affinity 3',5'-cyclic-AMP phosphodiesterase 7A; experiment: Inhibition of cloned human recombinant PDE7A assessed as [3H]cAMP hydrolysis at 1 uM by radiometric assay
[3] = Tmax in C57 mouse at 10 mg/kg, ip; type: ADME, organism-based; parameters: dose 10 mg/kg, route intraperitoneal; settings: in vivo
[4] = AUC in C57 mouse at 10 mg/kg, ip; type: ADME, organism-based; parameters: dose 10 mg/kg, route intraperitoneal; settings: plasma
[5] = Ratio of drug level in brain to plasma in C57 mouse at 10 mg/kg, ip after 30 mins; type: ADME, organism-based; parameters: dose 10 mg/kg, route intraperitoneal; settings: read-out: BPR
[6] = Cmax in C57 mouse at 10 mg/kg, ip; type: ADME, organism-based; parameters: dose 10 mg/kg, route intraperitoneal; settings: in vivo
[7] = Plasma concentration in C57 mouse at 10 mg/kg, ip after 30 mins; type: ADME, organism-based; parameters: dose 10 mg/kg, route intraperitoneal
[8] = Drug uptake in C57 mouse brain at 10 mg/kg, ip after 30 mins; type: ADME, organism-based; parameters: dose 10 mg/kg, route intraperitoneal; settings: read-out: Drug uptake
[9] = Metabolic stability in mouse liver microsomes assessed as compound remaining after 60 mins; type: ADME, Microsome; settings: read-out: Stability
[10] = Metabolic stability in rat liver microsomes assessed as compound remaining after 60 mins; type: ADME, Microsome; settings: read-out: Stability
[11] = Metabolic stability in human liver microsomes assessed as compound remaining after 60 mins; type: ADME, Microsome; settings: read-out: Stability
[12] = target: Dual 3',5'-cyclic-AMP and -GMP phosphodiesterase 11A (Homo sapiens) (UniProt Q9HCR9); experiment: Inhibition of cloned human recombinant PDE11A assessed as [3H]cAMP hydrolysis at 10 uM by radiometric assay
[13] = target: cAMP and cAMP-inhibited cGMP 3',5'-cyclic phosphodiesterase 10A (Homo sapiens) (UniProt Q9Y233); experiment: Inhibition of cloned human recombinant PDE10A assessed as [3H]cAMP hydrolysis at 10 uM by radiometric assay
[14] = target: High affinity cGMP-specific 3',5'-cyclic phosphodiesterase 9A (Homo sapiens) (UniProt O76083); experiment: Inhibition of cloned human recombinant PDE9A2 assessed as [3H]cAMP hydrolysis at 10 uM by radiometric assay
[15] = target: High affinity cAMP-specific and IBMX-insensitive 3',5'-cyclic phosphodiesterase 8A (Homo sapiens) (UniProt O60658); experiment: Inhibition of cloned human recombinant PDE8A1 assessed as [3H]cAMP hydrolysis at 10 uM by radiometric assay
[16] = target: cGMP-specific 3',5'-cyclic phosphodiesterase (Homo sapiens) (UniProt O76074); experiment: Inhibition of cloned human recombinant PDE5A assessed as [3H]cAMP hydrolysis at 10 uM by radiometric assay
[17] = target: T2, 3',5'-cyclic-AMP phosphodiesterase 4D (Homo sapiens, UniProt Q08499); experiment: Inhibition of cloned human recombinant PDE4D assessed as [3H]cAMP hydrolysis at 10 uM by radiometric assay
[18] = target: cGMP-inhibited 3',5'-cyclic phosphodiesterase 3A (Homo sapiens) (UniProt Q14432); experiment: Inhibition of cloned human recombinant PDE3A assessed as [3H]cAMP hydrolysis at 10 uM by radiometric assay
[19] = target: cGMP-dependent 3',5'-cyclic phosphodiesterase (Homo sapiens) (UniProt O00408); experiment: Inhibition of cloned human recombinant PDE2A assessed as [3H]cAMP hydrolysis at 10 uM by radiometric assay
[20] = target: Dual specificity calcium/calmodulin-dependent 3',5'-cyclic nucleotide phosphodiesterase 1A (Homo sapiens) (UniProt P54750); experiment: Inhibition of cloned human recombinant PDE1A assessed as [3H]cAMP hydrolysis at 10 uM by radiometric assay
[21] = target: 3',5'-cyclic-AMP phosphodiesterase 7B (Homo sapiens, UniProt Q9NP56); experiment: Inhibition of cloned human recombinant PDE7B assessed as [3H]cAMP hydrolysis by radiometric assay
[22] = system: Mus musculus; experiment: Antiparkinsonian activity in C57BL/6 mouse assessed as decrease in MPTP-induced vertical rearing behavior impairment at 15 mg/kg, sc administered 30 mins on day 7 post MPTP challenge; type: functional, organism-based; parameters: dose 15 mg/kg
[23] = species on record: Homo sapiens; experiment: Selectivity ratio of IC50 for cloned human recombinant PDE4D to IC50 for cloned human recombinant PDE7B
[24] = species on record: Homo sapiens; experiment: Selectivity ratio of IC50 for cloned human recombinant PDE4D to IC50 for cloned human recombinant PDE7A
[25] = target: T2, 3',5'-cyclic-AMP phosphodiesterase 4D; experiment: Inhibition of cloned human recombinant PDE4D assessed as [3H]cAMP hydrolysis by radiometric assay

T1 sequence (Q13946 whole entry): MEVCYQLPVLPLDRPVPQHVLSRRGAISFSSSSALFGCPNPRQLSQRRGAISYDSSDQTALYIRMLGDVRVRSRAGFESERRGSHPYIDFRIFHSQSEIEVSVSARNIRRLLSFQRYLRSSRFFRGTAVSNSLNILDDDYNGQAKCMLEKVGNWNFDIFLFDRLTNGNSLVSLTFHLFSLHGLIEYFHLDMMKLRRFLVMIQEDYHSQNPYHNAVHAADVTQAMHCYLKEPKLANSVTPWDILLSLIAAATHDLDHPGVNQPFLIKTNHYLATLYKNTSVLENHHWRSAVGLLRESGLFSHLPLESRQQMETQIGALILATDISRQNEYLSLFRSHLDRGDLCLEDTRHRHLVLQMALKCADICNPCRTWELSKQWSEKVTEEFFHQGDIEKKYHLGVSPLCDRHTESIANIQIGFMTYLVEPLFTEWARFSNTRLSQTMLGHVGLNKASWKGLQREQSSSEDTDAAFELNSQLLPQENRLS
T2 sequence (Q08499 whole entry): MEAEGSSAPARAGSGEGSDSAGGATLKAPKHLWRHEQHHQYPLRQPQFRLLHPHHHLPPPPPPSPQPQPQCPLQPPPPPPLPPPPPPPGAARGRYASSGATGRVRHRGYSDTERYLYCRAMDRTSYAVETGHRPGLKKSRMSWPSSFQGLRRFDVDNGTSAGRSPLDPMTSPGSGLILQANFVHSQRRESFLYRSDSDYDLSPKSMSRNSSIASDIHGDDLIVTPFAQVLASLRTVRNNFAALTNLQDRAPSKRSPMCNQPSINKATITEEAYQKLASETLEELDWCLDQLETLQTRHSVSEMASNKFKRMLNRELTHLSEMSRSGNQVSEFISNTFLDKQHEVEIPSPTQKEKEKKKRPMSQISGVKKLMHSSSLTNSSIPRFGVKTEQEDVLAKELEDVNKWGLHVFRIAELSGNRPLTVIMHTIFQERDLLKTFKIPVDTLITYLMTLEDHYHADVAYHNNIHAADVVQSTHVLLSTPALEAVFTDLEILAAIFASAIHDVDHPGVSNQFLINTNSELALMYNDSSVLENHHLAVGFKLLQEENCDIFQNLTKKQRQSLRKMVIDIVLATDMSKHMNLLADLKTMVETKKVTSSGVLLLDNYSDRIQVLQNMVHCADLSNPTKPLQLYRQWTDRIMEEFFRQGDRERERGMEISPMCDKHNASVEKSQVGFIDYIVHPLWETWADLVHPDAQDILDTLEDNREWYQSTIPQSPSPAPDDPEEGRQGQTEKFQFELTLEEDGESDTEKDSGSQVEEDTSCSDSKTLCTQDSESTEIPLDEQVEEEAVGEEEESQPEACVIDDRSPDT
High affinity cGMP-specific 3',5'-cyclic phosphodiesterase 9A (Homo sapiens), sequence (O76083 whole entry): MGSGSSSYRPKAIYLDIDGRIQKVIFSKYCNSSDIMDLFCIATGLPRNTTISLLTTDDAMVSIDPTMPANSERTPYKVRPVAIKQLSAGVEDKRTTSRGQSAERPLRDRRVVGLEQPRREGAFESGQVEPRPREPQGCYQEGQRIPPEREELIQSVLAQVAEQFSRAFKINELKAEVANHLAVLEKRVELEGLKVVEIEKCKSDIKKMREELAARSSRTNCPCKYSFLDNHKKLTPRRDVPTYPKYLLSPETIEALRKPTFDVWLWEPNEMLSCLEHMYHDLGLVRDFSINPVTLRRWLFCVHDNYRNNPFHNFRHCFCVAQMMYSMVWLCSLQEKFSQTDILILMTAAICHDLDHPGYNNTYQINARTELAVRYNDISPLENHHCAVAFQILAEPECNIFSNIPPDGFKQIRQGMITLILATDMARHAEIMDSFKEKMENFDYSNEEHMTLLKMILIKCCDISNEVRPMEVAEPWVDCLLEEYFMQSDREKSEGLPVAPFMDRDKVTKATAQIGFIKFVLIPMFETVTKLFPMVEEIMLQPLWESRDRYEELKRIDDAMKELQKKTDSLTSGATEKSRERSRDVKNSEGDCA
cGMP-dependent 3',5'-cyclic phosphodiesterase (Homo sapiens), sequence (O00408 whole entry): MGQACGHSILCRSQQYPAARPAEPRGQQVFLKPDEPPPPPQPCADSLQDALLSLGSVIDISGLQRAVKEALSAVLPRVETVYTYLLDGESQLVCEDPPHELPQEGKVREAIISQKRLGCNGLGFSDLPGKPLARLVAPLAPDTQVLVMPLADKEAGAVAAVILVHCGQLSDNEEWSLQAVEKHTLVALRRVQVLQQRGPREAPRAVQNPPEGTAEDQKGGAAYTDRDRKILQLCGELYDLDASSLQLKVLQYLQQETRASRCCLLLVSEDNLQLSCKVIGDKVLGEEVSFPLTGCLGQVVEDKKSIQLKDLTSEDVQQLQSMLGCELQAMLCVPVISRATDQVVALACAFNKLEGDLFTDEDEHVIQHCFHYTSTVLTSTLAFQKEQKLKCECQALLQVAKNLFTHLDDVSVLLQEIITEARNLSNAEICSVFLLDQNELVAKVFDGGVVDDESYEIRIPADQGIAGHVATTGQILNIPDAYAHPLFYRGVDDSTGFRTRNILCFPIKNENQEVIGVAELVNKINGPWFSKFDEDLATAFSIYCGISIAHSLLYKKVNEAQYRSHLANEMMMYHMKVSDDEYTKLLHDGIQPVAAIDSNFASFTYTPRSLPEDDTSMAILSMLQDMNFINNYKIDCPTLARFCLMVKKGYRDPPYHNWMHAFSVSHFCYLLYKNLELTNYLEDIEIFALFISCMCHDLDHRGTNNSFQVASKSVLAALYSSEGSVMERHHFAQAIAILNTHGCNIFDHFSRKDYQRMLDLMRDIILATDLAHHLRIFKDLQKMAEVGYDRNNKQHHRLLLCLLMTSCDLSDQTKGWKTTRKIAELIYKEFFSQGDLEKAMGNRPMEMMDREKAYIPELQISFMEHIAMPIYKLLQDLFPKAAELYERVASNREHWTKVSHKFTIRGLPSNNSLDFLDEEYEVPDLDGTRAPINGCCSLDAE
Dual specificity calcium/calmodulin-dependent 3',5'-cyclic nucleotide phosphodiesterase 1A (Homo sapiens), sequence (P54750 whole entry): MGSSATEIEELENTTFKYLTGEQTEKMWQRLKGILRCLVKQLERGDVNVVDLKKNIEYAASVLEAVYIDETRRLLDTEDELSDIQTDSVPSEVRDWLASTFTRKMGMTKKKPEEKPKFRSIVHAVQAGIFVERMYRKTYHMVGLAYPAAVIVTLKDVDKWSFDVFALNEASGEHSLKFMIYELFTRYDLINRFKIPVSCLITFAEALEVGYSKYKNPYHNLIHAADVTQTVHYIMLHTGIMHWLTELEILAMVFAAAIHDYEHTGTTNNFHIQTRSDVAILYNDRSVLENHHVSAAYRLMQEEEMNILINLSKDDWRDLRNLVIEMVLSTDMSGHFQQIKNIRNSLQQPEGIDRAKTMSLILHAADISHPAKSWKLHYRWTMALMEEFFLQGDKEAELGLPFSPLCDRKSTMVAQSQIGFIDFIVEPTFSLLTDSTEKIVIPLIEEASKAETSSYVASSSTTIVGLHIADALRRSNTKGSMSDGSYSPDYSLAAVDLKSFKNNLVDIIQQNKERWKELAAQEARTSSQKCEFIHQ
cAMP and cAMP-inhibited cGMP 3',5'-cyclic phosphodiesterase 10A (Homo sapiens), sequence (Q9Y233 whole entry): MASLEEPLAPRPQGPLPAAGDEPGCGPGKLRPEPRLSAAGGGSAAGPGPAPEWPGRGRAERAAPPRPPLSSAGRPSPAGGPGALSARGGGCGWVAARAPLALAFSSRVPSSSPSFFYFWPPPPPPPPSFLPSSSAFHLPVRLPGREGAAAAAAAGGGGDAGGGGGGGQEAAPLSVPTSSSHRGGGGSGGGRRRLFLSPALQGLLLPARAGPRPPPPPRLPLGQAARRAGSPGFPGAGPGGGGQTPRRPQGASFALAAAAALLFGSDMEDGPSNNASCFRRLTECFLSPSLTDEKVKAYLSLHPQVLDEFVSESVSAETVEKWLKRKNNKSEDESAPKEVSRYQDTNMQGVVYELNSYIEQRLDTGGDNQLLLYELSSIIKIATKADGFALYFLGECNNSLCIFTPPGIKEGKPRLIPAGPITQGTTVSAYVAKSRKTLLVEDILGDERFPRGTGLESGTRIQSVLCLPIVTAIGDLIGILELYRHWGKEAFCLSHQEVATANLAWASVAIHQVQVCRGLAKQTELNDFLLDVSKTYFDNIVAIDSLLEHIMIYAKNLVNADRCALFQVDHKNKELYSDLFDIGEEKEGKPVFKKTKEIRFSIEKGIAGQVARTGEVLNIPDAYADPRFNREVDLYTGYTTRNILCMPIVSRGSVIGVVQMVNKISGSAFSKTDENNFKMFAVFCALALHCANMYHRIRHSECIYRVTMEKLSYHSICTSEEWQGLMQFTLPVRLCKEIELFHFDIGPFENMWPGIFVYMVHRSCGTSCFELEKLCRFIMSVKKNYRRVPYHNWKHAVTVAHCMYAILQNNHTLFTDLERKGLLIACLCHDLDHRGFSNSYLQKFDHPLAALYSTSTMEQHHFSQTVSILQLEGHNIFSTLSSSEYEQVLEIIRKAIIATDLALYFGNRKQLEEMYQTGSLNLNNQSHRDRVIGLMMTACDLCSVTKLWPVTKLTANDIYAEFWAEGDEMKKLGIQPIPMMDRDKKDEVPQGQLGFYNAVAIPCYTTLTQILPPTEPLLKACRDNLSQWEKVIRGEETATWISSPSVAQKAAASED
3',5'-cyclic-AMP phosphodiesterase 7B, sequence (Q9NP56 whole entry): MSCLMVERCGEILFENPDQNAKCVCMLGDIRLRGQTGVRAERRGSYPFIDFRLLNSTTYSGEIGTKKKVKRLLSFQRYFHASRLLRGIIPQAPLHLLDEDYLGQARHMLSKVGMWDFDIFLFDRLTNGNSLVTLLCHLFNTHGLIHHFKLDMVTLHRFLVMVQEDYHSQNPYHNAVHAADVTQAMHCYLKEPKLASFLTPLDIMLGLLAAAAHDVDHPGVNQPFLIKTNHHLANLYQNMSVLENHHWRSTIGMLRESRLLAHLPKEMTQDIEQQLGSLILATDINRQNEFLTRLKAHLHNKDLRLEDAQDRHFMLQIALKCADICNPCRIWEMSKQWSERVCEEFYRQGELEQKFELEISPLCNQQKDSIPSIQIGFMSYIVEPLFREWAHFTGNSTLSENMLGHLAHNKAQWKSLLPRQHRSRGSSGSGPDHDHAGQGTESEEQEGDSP

Compound: CCCCC(CC)Cn1nc(C)c2nc(-c3ccc(N4CCC(N)CC4)cc3OC)[nH]c2c1=O (centres undefined)
inhibition [2]: 6%

Compound: COc1cc(N2CCC(N)CC2)ccc1-c1nc2c(C)nn(C3CCCCC3)c(=O)c2[nH]1
Tmax [3]: 4 h
AUC [4]: 2300 ng·h/mL
Kp at 0.5 h [5]: 0.1
Cmax [6]: 902 ng/mL
concentration at 0.5 h [7]: 451 ng/mL
concentration at 0.5 h [8]: 46 ng/g
remaining at 1 h [9]: 44%
remaining at 1 h [10]: 100%
remaining at 1 h [11]: 100%
inhibition [12]: 44%
inhibition [13]: 40%
inhibition [14]: 9%
inhibition [15]: 6%
inhibition [16]: 32%
inhibition [17]: 81%
inhibition [18]: 2%
inhibition [19]: 40%
inhibition [20]: 16%
IC50 [21]: 0.011 µM
inhibition [2]: 96%
IC50 [1]: 0.027 µM

Compound: N[C@@H](Cc1ccc(O)c(O)c1)C(=O)O
Activity [22]: Active

Compound: COc1cc(N2CC(N)C2)ccc1-c1nc2c(C)nn(C3CCCCC3)c(=O)c2[nH]1
IC50 [1]: 0.073 µM

Compound: COc1cc(N2CCC(N)CC2)ccc1-c1nc2c(C)nn(Cc3ccccc3)c(=O)c2[nH]1
inhibition [2]: 13%

The next lines start with the values.

IC50 [1]: 0.104 µM
Compound: COc1cc(N2CCNCC2)ccc1-c1nc2c(C)nn(C3CCCCC3)c(=O)c2[nH]1

Tmax [3]: 0.25 h
AUC [4]: 1370 ng·h/mL
Kp at 0.5 h [5]: 0.09
Cmax [6]: 570 ng/mL
concentration at 0.5 h [7]: 446 ng/mL
concentration at 0.5 h [8]: 39 ng/g
remaining at 1 h [9]: 37%
remaining at 1 h [10]: 40%
Ratio IC50 [23]: > 150
remaining at 1 h [11]: 90%
Ratio IC50 [24]: > 200
IC50 [25]: 2.9 µM
inhibition [12]: 24%
inhibition [13]: 2%
inhibition [14]: 12%
inhibition [15]: 19%
inhibition [16]: 3%
inhibition [17]: 90%
inhibition [18]: 4%
inhibition [19]: 28%
inhibition [20]: 33%
IC50 [21]: 0.019 µM
IC50 [1]: 0.012 µM
Compound: COc1cc(N2CCCNCC2)ccc1-c1nc2c(C)nn(C3CCCCC3)c(=O)c2[nH]1
